Data taken from patent publication US10450295B2, “Method of using an indolinone molecule and derivatives for inhibiting liver fibrosis and hepatitis” (Acclaim BioMed USA LLC, priority 2013, dated 2019).
pIC50: −log10 of the molar value. Entries after “also recorded” stand apart in the source; their conditions may differ.

Legend:
[1] = system: collagen type I in fibrotic liver; experiment: Carbon tetrachloride liver fibrosis mouse model, immunohistological staining for collagen type I; format: in vivo, mice
Description: The ability of Hesperadin to inhibit collagen expressions in a liver fibrosis mouse model was then examined. To induce fibrosis in the liver, mice were injected with carbon tetrachloride, twice a week, for 6 weeks. In control group of mice, they were injected with DMSO/saline, twice a week for 2 weeks. For the experimental group of mice, they were injected with either 50 or 500 μg/kg Hesperadin after chronic carbon tetrachloride treatment. […] In contrast, following chronic carbon tetrachloride treatment, collagen type I was expressed strongly at the lobules, the portal areas, the lining of the sinusoid and around the central veins (FIGS. 12A and 12B). […] In mice of carbon tetrachloride treatment alone, collagen type I was strongly expressed in the periphery of the hepatic sinusoids. Forty female ICR mice (6 weeks old) were acquired from the MOE Key laboratory for Regenerative Medicine. To induce liver fibrosis, the mice were injected i.p. with carbon tetrachloride (1.65 ml/kg body weight suspended in 0.1 ml olive oil) twice per week for a total of 6 weeks. In the control group, mice received carbon tetrachloride injection for 6 weeks followed by DMSO or saline injections, twice a week, for two weeks. In the experimental group, mice received carbon tetrachloride for 6 weeks followed by i.p. injections of 50 μg/kg or 500 μg/kg Hesperadin, twice a week, for two weeks. […] The extent of fibrosis was scored according to Zhou, et al. (5): 1=thickened perivenular collagen and a few thin collagen septa; 2=thin septa with incomplete bridging between portal regions; 3=thin septa and extensive bridging; 4=thickened septa with complete bridging of portal regions and a nodular appearance. Collagen content was measured with a Universal Imaging (Chester, Pa.) analysis system. Briefly, trichrome-stained liver sections were analysed using an Axioskope 50 microscope (CarlZeiss Lab). […] Collagen accumulation was calculated as the percentage of the total field at ×40 magnifications that was stained blue. The arrangement and morphology of the hepatocytes will also be examined and recorded. […]

Mammalian cells = conditions: cited from earlier work
[2] = system: human liver stellate cells; experiment: Cell death assay (MTT assay) SAR screening of Hesperadin related derivatives; format: cell-based; conditions: FIGS. 14A through 14T
Description: Human Hepatic Stellate cells (LX-2 cell line) (HSCs) were obtained from the Key Lab of Regenerative Medicine, Jinan University, Guangzhou, China, which were maintained in Dulbecco's Modified Eagle Medium (DMEM)+10% fetal calf serum and penicillin-streptomycin (100 unit/ml and 0.1 mg/ml, respectively), in 5% CO2 at 37° C. inside a humidified cell incubator. The culture medium was changed every three days. To test the effects of small molecule Hesperadin on the mouse and human HSCs, the cultures were treated with 0.625 μM of Hesperadin for 48 hrs. The cultures were then fixed in ice cold 70% ethanol and incubated in phosphate buffered saline with RNase (0.25 mg/ml), Propidium iodide dye (40 μg/ml) and 0.1% Triton X for an hour at room temperature. For cell cycle analysis, the Propidium iodide stained cells were examined using a flow cytometer (“BD LSRFortessa Cell Analyzer”). The proliferation of HSCs was also evaluated by the MTT staining assay with 3-(4,5-Dimethylthiazol-2-yl)-2,5-diphenyltetrazolium bromide). HSCs were plated at 1×10^4 cells/ml and culture overnight. Hesperadin (in serial dilutions) was then added into the culture medium for 48 hours. This was followed by addition of MTT (250 μg/ml) for a further 4 hours. The medium was eluted and the formazan crystal was dissolved in 100 μL of DMSO. The absorbance (at 570 nm) was measured using a BIORAD 3550 Microplate Reader. […]

MMP-2 gene expression = experiment: Real-time RT-PCR in HSC, MMP-2; format: cell-based, human; conditions: 0.625 μM, FIG. 9
Description: (§1) Human Hepatic Stellate cells (LX-2 cell line) (HSCs) were obtained from the Key Lab of Regenerative Medicine, Jinan University, Guangzhou, China, which were maintained in Dulbecco's Modified Eagle Medium (DMEM)+10% fetal calf serum and penicillin-streptomycin (100 unit/ml and 0.1 mg/ml, respectively), in 5% CO2 at 37° C. inside a humidified cell incubator. The culture medium was changed every three days. To test the effects of small molecule Hesperadin on the mouse and human HSCs, the cultures were treated with 0.625 μM of Hesperadin for 48 hrs. […] The proliferation of HSCs was also evaluated by the MTT staining assay with 3-(4,5-Dimethylthiazol-2-yl)-2,5-diphenyltetrazolium bromide). […] The absorbance (at 570 nm) was measured using a BIORAD 3550 Microplate Reader. […]
(§2) Collagen type-I, -III and -VI, MMP-2, MMP-9 and TIMP-1 gene expression was determined using quantitative real-time PCR. […] Quantitation of mRNA levels was performed using a SYBR® Premix Ex Taq™ Kit (Takara) in an Applied Biosystems 7900HT Fast Real-Time PCR System. To quantify the amount of specific mRNA in the samples, a standard curve was generated for each PCR run using four amounts of the cDNA synthesized from our HSC cultures and liver samples. […] Data was analyzed using a StatView software (Abacus Concepts Inc) with Student's t-test.

[3] = system: cultured bloodstream forms (BF); conditions: read-out: IC50, growth of cultured bloodstream forms (BF); cited from earlier work
TIMP-1 gene expression = experiment: Real-time RT-PCR in HSC, TIMP-1; format: cell-based, human; conditions: 0.625 μM, FIG. 11
Description: as §1, §2

[4] = system: collagen 1A1 gene expression; experiment: Real-time RT-PCR in HSC, collagen 1A1; format: cell-based, human; conditions: 0.625 μM, FIG. 7
Description: as §1, §2

CCS(=O)(=O)Nc1ccc2c(c1)/C(=C(/Nc1ccc(CN3CCCCC3)cc1)c1ccccc1)C(=O)N2 [Hesperadin, (Z)—N-(2-oxo-3-(Phenyl(4-(piperidin-1-ylmethyl)phenylamino)methylene)indolin-5-yl)ethanesulfonamide]
collagen type I in histological liver sections ([1]; 50 μg/kg i.p. twice a week for two weeks after 6 weeks CCl4, mice): less collagen type I evident | collagen type I in histological liver sections ([1]; 500 μg/kg i.p. twice a week for two weeks after 6 weeks CCl4, mice): less collagen type I evident; also recorded: significantly less collagen staining | quantified intensity of collagen type I staining ([1]; 500 μg/kg, FIG. 13, p<0.05): significant reduction in collagen type I production and expression | time to enter anaphase (Mammalian cells; cells arrested by taxol or monastrol): < 1 h | time cells stayed arrested (Mammalian cells; cells in nocodazole): 3 to 5 h | effect on nuclear division and cytokinesis (Mammalian cells): blocks nuclear division and cytokinesis | percentage of inhibition, cell death assay (MTT), relative potency [2]: most potent derivative | MMP-2 mRNA expression (MMP-2 gene expression): inhibited | pIC50 [3]: 7.30 | TIMP-1 mRNA expression (TIMP-1 gene expression): inhibited | Collagen 1A1 mRNA expression [4]: confirmed by real-time RT-PCR analysis
